Laboratory results taken from patent US20030198674A1, “Controlled release pharmaceutical dosage forms of a cholesteryl ester transfer protein inhibitor” (priority 2002, published 2003).
Converted amounts (≈) assume the structure as drawn. Where two headings read alike, the source gives them in different places.

What was measured:
[1] = Aqueous solubility of Drug A; assay type: physicochemical
[2] = Single-dose plasma Drug A concentration vs. time curve fitted to 2-compartment PK model; assay type: in vivo, Human
Procedure: Pharmacokinetic (PK) constants were derived by fitting this curve to a 2-compartment PK model, assuming a small intestinal transit time of 4 hr, and a gastric emptying time of 15 min.

[3] = Plasma half-life of Drug A; assay type: in vivo
[4] = 120 mg Drug A, fitted 2-compartment model

- aqueous solubility [1]: about 0.04 microgm/ml
- solubility ([1]; water (aqueous), accurate measurements, crystalline): ~0.01 µg/mL (≈ 0.0167 µM)
- solubility ([1]; water, read-out: solubility in water): < 1 µg/mL
- Absorption Ka [2, 4]: 2.27 h⁻¹
- K12 [2, 4]: 0.017 h⁻¹
- K21 [2, 4]: 0.002 h⁻¹
- Kel (Elimination Rate Constant) ([2]; calculated from Cl/Vd): 0.042 h⁻¹
- clearance ([2]; human, plasma, oral, 120 mg, read-out: Clearance (Cl) (converted)): 218 mL/min
- Vd ([2]; human, plasma, oral, 120 mg, read-out: Volume of distribution (Vd)): 174 L
- half-life ([3]; read-out: additional long terminal elimination half-life): 100 to 200 h
- half-life ([3]; read-out: effective plasma terminal half-life (t1/2)): 30 to 70 h
SMILES: CCOC(=O)N1c2ccc(C(F)(F)F)cc2[C@@H](N(Cc2cc(C(F)(F)F)cc(C(F)(F)F)c2)C(=O)OC)C[C@H]1CC [Drug A, [2R,4S] 4-[(3,5-bis-trifluoromethyl-benzyl)-methoxycarbonyl-amino]-2-ethyl-6-trifluoromethyl-3,4-dihydro-2H-quinoline-1-carboxylic acid ethyl ester]
